Laboratory results from patent publication US7884083B2, “Immunomodulatory compositions, methods of making, and methods of use thereof” (Dynavax Technologies Corporation, priority 2002, dated 2011).

Tests used:
[1] = dodecyl spacer measured as dialcohol precursor; cited from earlier work
[2] = test system: human peripheral blood lymphocytes (PBMCs); test: hPBMC assay: IFN-γ and IFN-α production by human PBMCs (ELISA); type: cell-based; conditions: for IFN-γ/α-enhancing activity in comparison to PMXB or CLN: in words, Table 10 experiment; for immunomodulatory activity in the hPBMC assay: result in words
[3] = test system: plasmacytoind dendritic cells (PDCs) of human PBMCs; test: Intracellular staining and FACS analysis of IFN-α production from PDCs; type: cell-based; conditions: double-staining cells as percentage of total PBMCs, 20 μg/mL oligonucleotide, 100 μg/mL PMXB, six hours
Experimental: Intracellular staining assays and FACS analysis were used to examine IFN-α production from the plasmacytoind dendritic cells (PDCs) of human PBMCs. […] For these assays, the IMC or -ISS and the polymyxin were added separately to the PBMC cell culture which contained human serum albumin. […] After the six hours, the cells were stained with a fluorescently labeled PDC marker, anti-BCDA-2 labeled with FITC, and with anti-IFN-α labeled with PE. FACS analysis of the labeled cells was performed.

[4] = hydrophobic/lipophilic balance value; cited from earlier work
[5] = Donor 28212, Controls, 20 μg/ml oligonucleotide, 100 μg/ml polymyxin
[6] = Donor 28213, Controls, 20 μg/ml oligonucleotide, 100 μg/ml polymyxin
[7] = Donor 28232, no Time given, 20 μg/ml oligonucleotide, 100 μg/ml polymyxin
[8] = Donor 28233, no Time given, 20 μg/ml oligonucleotide, 100 μg/ml polymyxin
[9] = Donor # 20, 20 μg/ml oligonucleotide, 100 μg/ml PMXB, 24 hours
[10] = Donor # 37, 20 μg/ml oligonucleotide, 100 μg/ml PMXB, 24 hours
[11] = Donor # 75, 20 μg/ml oligonucleotide, 100 μg/ml PMXB, 24 hours
[12] = Donor # 86, 20 μg/ml oligonucleotide, 100 μg/ml PMXB, 24 hours
[13] = Donor # 87, 20 μg/ml oligonucleotide, 100 μg/ml PMXB, 24 hours
[14] = Donor # 88, 20 μg/ml oligonucleotide, 100 μg/ml PMXB, 24 hours
[15] = Donor # 89, 20 μg/ml oligonucleotide, 100 μg/ml PMXB, 24 hours
[16] = Donor # 90, 20 μg/ml oligonucleotide, 100 μg/ml PMXB, 24 hours
[17] = Donor # 91, 20 μg/ml oligonucleotide, 100 μg/ml PMXB, 24 hours
[18] = Donor # 95, 20 μg/ml oligonucleotide, 100 μg/ml PMXB, 24 hours
[19] = Donor # 96, 20 μg/ml oligonucleotide, 100 μg/ml PMXB, 24 hours
[20] = Donor # 97, 20 μg/ml oligonucleotide, 100 μg/ml PMXB, 24 hours
[21] = Mean (Table 4), Controls, 20 μg/ml oligonucleotide, 100 μg/ml polymyxin
[22] = Mean (Table 6), no Time given, 20 μg/ml oligonucleotide, 100 μg/ml polymyxin
[23] = Mean of donors (Table 2), 20 μg/ml oligonucleotide, 100 μg/ml PMXB, 24 hours
[24] = Table 3, Donor 1, PMXB 100 μg/ml, AMTB 10 μg/ml, serum containing medium
[25] = Table 3, Donor 2, PMXB 100 μg/ml, AMTB 10 μg/ml, serum containing medium
[26] = Table 3, Mean, PMXB 100 μg/ml, AMTB 10 μg/ml, serum containing medium
[27] = Table 9, Mean, 20 μg/ml oligonucleotide, 100 μg/ml polymyxin
[28] = Table 9, donor 149, 20 μg/ml oligonucleotide, 100 μg/ml polymyxin
[29] = Table 9, donor 208, 20 μg/ml oligonucleotide, 100 μg/ml polymyxin
[30] = Donor 198, no Time given, 20 μg/ml oligonucleotide
[31] = Donor 199, no Time given, 20 μg/ml oligonucleotide
[32] = Donor # 9, 20 μg/ml oligonucleotide, 100 μg/ml PMXB, 24 hours
[33] = Donor # 94, 20 μg/ml oligonucleotide, 100 μg/ml PMXB, 24 hours
[34] = Mean (Table 5), no Time given, 20 μg/ml oligonucleotide
[35] = Table 10, donor 1, 20 μg/ml oligonucleotide, 100 μg/ml polymyxin derivative added separately, 24 hours
[36] = Table 10, donor 2, 20 μg/ml oligonucleotide, 100 μg/ml polymyxin derivative added separately, 24 hours
[37] = Table 10, donor 3, 20 μg/ml oligonucleotide, 100 μg/ml polymyxin derivative added separately, 24 hours
[38] = Table 10, donor 4, 20 μg/ml oligonucleotide, 100 μg/ml polymyxin derivative added separately, 24 hours
[39] = Table 10, donor 5, 20 μg/ml oligonucleotide, 100 μg/ml polymyxin derivative added separately, 24 hours
[40] = Table 10, donor 6, 20 μg/ml oligonucleotide, 100 μg/ml polymyxin derivative added separately, 24 hours
[41] = Table 10, mean of 6 donors, 20 μg/ml oligonucleotide, 100 μg/ml polymyxin derivative added separately, 24 hours

Molecule: OCCCCCCCCCCCCO [1,12-dihydroxydodecane]
- solubility [1]: < 5000 µg/mL

Molecule: colistin methanesulfonate [CMS]
- IFN-γ/α-enhancing activity in comparison to PMXB or CLN [2]: substantially reduced

Molecule: Polymyxin B [PMXB]
- IFN-α [2, 5]: 268 pg/mL
- IFN-γ [2, 5]: 5 pg/mL
- IFN-α [2, 6]: 213 pg/mL
- IFN-γ [2, 6]: 4 pg/mL
- IFN-Υ [2, 7]: 8 pg/mL
- IFN-α [2, 7]: 16 pg/mL
- IFN-Υ [2, 8]: 7 pg/mL
- IFN-α [2, 8]: 84 pg/mL
- IFN-γ [2, 9]: 20 pg/mL
- IFN-α [2, 10]: 0 pg/mL
- IFN-γ [2, 10]: 228 pg/mL
- IFN-γ [2, 11]: 6 pg/mL
- IFN-α [2, 12]: 353 pg/mL
- IFN-γ [2, 12]: 23 pg/mL
- IFN-α [2, 13]: 326 pg/mL
- IFN-γ [2, 13]: 33 pg/mL
- IFN-α [2, 14]: 33 pg/mL
- IFN-γ [2, 14]: 112 pg/mL
- IFN-α [2, 15]: 9 pg/mL
- IFN-γ [2, 15]: 3 pg/mL
- IFN-α [2, 16]: 0 pg/mL
- IFN-γ [2, 16]: 0 pg/mL
- IFN-α [2, 17]: 0 pg/mL
- IFN-γ [2, 17]: 47 pg/mL
- IFN-α [2, 18]: 0 pg/mL
- IFN-γ [2, 18]: 17 pg/mL
- IFN-γ [2, 19]: 55 pg/mL
- IFN-γ [2, 20]: 21 pg/mL
- IFN-α [2, 21]: 241 pg/mL
- IFN-γ [2, 21]: 5 pg/mL
- IFN-Υ [2, 22]: 7 pg/mL
- IFN-α [2, 22]: 50 pg/mL
- IFN-α [2, 23]: 90 pg/mL
- IFN-γ [2, 23]: 47 pg/mL
- IFN-α [2, 24]: 1 pg/mL
- IFN-γ [2, 24]: 23 pg/mL
- IFN-α [2, 25]: 0 pg/mL
- IFN-γ [2, 25]: 6 pg/mL
- IFN-α [2, 26]: 0 pg/mL
- IFN-γ [2, 26]: 15 pg/mL
- IFN-Υ [2, 27]: 127 pg/mL
- IFN-α [2, 27]: 32 pg/mL
- IFN-Υ [2, 28]: 195 pg/mL
- IFN-α [2, 28]: 32 pg/mL
- IFN-Υ ([2]; Table 9, donor 206, 20 μg/ml oligonucleotide, 100 μg/ml polymyxin): 14 pg/mL
- IFN-Υ [2, 29]: 171 pg/mL
- IFN-α [2, 29]: 32 pg/mL
- IFN-α ([2]; Table 9, donor 209, 20 μg/ml oligonucleotide, 100 μg/ml polymyxin): 32 pg/mL
- immunomodulatory activity in the hPBMC assay [2]: no immunomodulatory activity on its own

Molecule: polymyxin B nonapeptide [PMXB-9]
- IFN-γ/α-enhancing activity in comparison to PMXB or CLN [2]: substantially reduced

Molecule: 5′-TGACTGTGAACCTTAGAGATGA-3′ (DNA, all phosphorothioate, methylation of C not given here) [−ISS]
- IFN-α [2, 30]: 151 pg/mL
- IFN-γ [2, 30]: 5 pg/mL
- IFN-α [2, 31]: 279 pg/mL
- IFN-γ [2, 31]: 18 pg/mL
- IFN-α [2, 5]: 225 pg/mL
- IFN-γ [2, 5]: 5 pg/mL
- IFN-α [2, 6]: 156 pg/mL
- IFN-γ [2, 6]: 7 pg/mL
- IFN-α [2, 32]: 0 pg/mL
- IFN-γ [2, 32]: 0 pg/mL
- IFN-γ [2, 9]: 4 pg/mL
- IFN-α [2, 10]: 0 pg/mL
- IFN-γ [2, 10]: 5 pg/mL
- IFN-γ [2, 11]: 1 pg/mL
- IFN-α [2, 12]: 15 pg/mL
- IFN-γ [2, 12]: 12 pg/mL
- IFN-α [2, 13]: 0 pg/mL
- IFN-γ [2, 13]: 12 pg/mL
- IFN-α [2, 14]: 19 pg/mL
- IFN-γ [2, 14]: 70 pg/mL
- IFN-α [2, 15]: 17 pg/mL
- IFN-γ [2, 15]: 7 pg/mL
- IFN-α [2, 16]: 0 pg/mL
- IFN-γ [2, 16]: 0 pg/mL
- IFN-α [2, 17]: 0 pg/mL
- IFN-γ [2, 17]: 30 pg/mL
- IFN-α [2, 33]: 0 pg/mL
- IFN-γ [2, 33]: 0 pg/mL
- IFN-α [2, 18]: 0 pg/mL
- IFN-γ [2, 18]: 4 pg/mL
- IFN-γ [2, 19]: 9 pg/mL
- IFN-γ [2, 20]: 5 pg/mL
- IFN-α [2, 21]: 191 pg/mL
- IFN-γ [2, 21]: 6 pg/mL
- IFN-α [2, 34]: 215 pg/mL
- IFN-γ [2, 34]: 12 pg/mL
- IFN-α [2, 23]: 5 pg/mL
- IFN-γ [2, 23]: 11 pg/mL
- IFN-α [2, 24]: 3 pg/mL
- IFN-γ [2, 24]: 1 pg/mL
- IFN-α [2, 25]: 0 pg/mL
- IFN-γ [2, 25]: 0 pg/mL
- IFN-α [2, 26]: 1 pg/mL
- IFN-γ [2, 26]: 0 pg/mL
- IFN-α [2, 35]: 52 pg/mL
- IFN-γ [2, 35]: 2 pg/mL
- IFN-α [2, 36]: 52 pg/mL
- IFN-γ [2, 36]: 2 pg/mL
- IFN-α [2, 37]: 52 pg/mL
- IFN-γ [2, 37]: 2 pg/mL
- IFN-α [2, 38]: 52 pg/mL
- IFN-γ [2, 38]: 2 pg/mL
- IFN-α [2, 39]: 26 pg/mL
- IFN-γ [2, 39]: 10 pg/mL
- IFN-α [2, 40]: 26 pg/mL
- IFN-γ [2, 40]: 2 pg/mL
- IFN-α [2, 41]: 43 pg/mL
- IFN-γ [2, 41]: 3 pg/mL

Molecule: 5′-TCGTCGAACGTTCGAGATGAT-3′ [SEQ ID NO: 39]
- BCDA-2/IFN-α d.p. % ([3]; donor 1): 0.08%
- BCDA-2/IFN-α d.p. % ([3]; donor 2): 0.14%
- BCDA-2/IFN-α d.p. % ([3]; mean): 0.11%

Molecule: polyoxyethylene(20) sorbitan trioleate [Tween 85]
- IFN-Υ [2, 7]: 15 pg/mL
- IFN-α [2, 7]: 66 pg/mL
- IFN-Υ [2, 8]: 6 pg/mL
- IFN-α [2, 8]: 55 pg/mL
- IFN-Υ [2, 22]: 11 pg/mL
- IFN-α [2, 22]: 60 pg/mL
- HLB [4]: 11

Molecule: polyethylene glycol sorbitan monooleate
- HLB [4]: 15.4

Molecule: C[C@@H]1[C@H](O)[C@@H](C)/C=C/C=C/C=C/C=C/C=C/C=C/C=C/[C@H](O[C@@H]2O[C@H](C)[C@@H](O)[C@H](N)[C@@H]2O)C[C@@H]2O[C@](O)(C[C@@H](O)C[C@@H](O)[C@H](O)CC[C@@H](O)C[C@@H](O)CC(=O)O[C@H]1C)C[C@H](O)[C@H]2C(=O)O [AMTB, amphotericin B]
- IFN-α [2, 24]: 0 pg/mL
- IFN-γ [2, 24]: 0 pg/mL
- IFN-α [2, 25]: 0 pg/mL
- IFN-γ [2, 25]: 0 pg/mL
- IFN-α [2, 26]: 0 pg/mL
- IFN-γ [2, 26]: 0 pg/mL
- immunomodulatory activity in the hPBMC assay [2]: no activity on its own

Molecule: 5′-TGCTTGCAAGCTTGCAAGCA-3′ (listed as DNA, chemistry not given here) [−ISS SEQ ID NO: 38, reference compound]
- BCDA-2/IFN-α d.p. % ([3]; donor 1): 0.00%
- BCDA-2/IFN-α d.p. % ([3]; donor 2): 0.00%
- BCDA-2/IFN-α d.p. % ([3]; mean): 0.00%
